Measurements taken from patent US20140206629A1, “Stromal Derived Factor Inhibition And CXCR4 Blockade” (RHODE ISLAND HOSPITAL, priority 2011, published 2014).
Entries after “also recorded” stand apart in the source; their conditions may differ.

Tests used:
[1] = tested on: IL-1β induced SDF-1 expression in human subacromial bursal cells; assay: SDF-1α protein (ELISA) in supernatants of IL-1β-treated cultured bursal cells with inhibitors; format: cell-based; conditions: bursal cells treated with IL-1β 20 ng/mL plus inhibitor
Method: (§1) Human subacromial bursal biopsy specimens were obtained as above. Tissues were washed with Hank's balanced salt solution (Gibco), minced with scissors, and resuspended in Dulbecco's minimum essential medium (DMEM, Gibco) containing 1 mg/ml collagenase, 0.15 mg/ml DNase, and 0.15 mg/ml hyaluronidase. The tissue was enzymatically digested for 2 hours at 37° C. and then passed through sterile gauze to remove any undigested fragments. Cells were seeded in 75 cm2 flasks with DMEM supplemented with 10% fetal bovine serum (FBS), 100 U/ml penicillin, 100 μg/ml streptomycin, and 0.1% fungizone (amphotericin B) and grown at 37° C. in a humidified atmosphere of 5% CO2 and 95% air. Subcultures were performed with Trypsin-EDTA treatment (Gibco).
Subacromial bursal cells were cultured as above. After the first passage, cells were plated into 6-well plates and grown to 85% confluence. Wells were then treated (in triplicate) with IL-1β 20 ng/mL and respective inhibitors (AMD3100, T140 analog, dexamethasone or NSAID). After 24 hours, supernatants were collected and assayed for SDF-1α expression using Quantikineâ Human SDF-1α enzyme immunoassay kit (R & D System) according to the manufacturer's instructions. Standard curves were reconstituted using SDF-1α protein. The optical density of each well was determined using a microplate reader set to 450 nm wavelength. […]

[2] = tested on: human subacromial bursal cells; assay: Cytokine stimulation of SDF-1α protein production in cultured bursal cells (ELISA); format: cell-based
Method: as §1
SDF-1 expression was induced by stimulating bursal cells with IL-1β. SDF-1 levels were measured in cell supernatants and mRNA levels were tested using real-time RT-PCR at various time points. SDF-1 expression increased with time and occurred in a dose-dependent fashion. […] (FIG. 3) These experiments were reproducible with cells grown from several different tissue samples.
(§2) Subacromial bursa specimens were obtained from patients undergoing shoulder surgery. […] Early-passaged cells were then treated with cytokines ([…] and IL-6) and SDF-1α expression was measured by ELISA and RT-PCR.

[3] = tested on: human subacromial bursal cells; assay: Cytokine stimulation of SDF-1α mRNA expression in cultured bursal cells (RT-PCR); format: cell-based; conditions: cytokine-treated bursal cells vs controls; maximal at 24 hours
Method: as §1
Subacromial bursal cells were cultured as above. […] SDF-1 mRNA was quantified with SDF-1 specific primers SDF-1FOR (5′-GATTGTAGCCCGGCT GAAGAA-3′) (SEQ ID NO: 11) and SDF-1BACK (5′-[…]-3′) (SEQ ID NO: 12). […]
SDF-1 expression was induced by stimulating bursal cells with IL-1β. SDF-1 levels were measured in cell supernatants and mRNA levels were tested using real-time RT-PCR at various time points. […]
as §2

CCR5 = CCR5 (Homo sapiens, UniProt P51681); conditions: cited from earlier work
Chain of CCR5 (P51681 whole entry): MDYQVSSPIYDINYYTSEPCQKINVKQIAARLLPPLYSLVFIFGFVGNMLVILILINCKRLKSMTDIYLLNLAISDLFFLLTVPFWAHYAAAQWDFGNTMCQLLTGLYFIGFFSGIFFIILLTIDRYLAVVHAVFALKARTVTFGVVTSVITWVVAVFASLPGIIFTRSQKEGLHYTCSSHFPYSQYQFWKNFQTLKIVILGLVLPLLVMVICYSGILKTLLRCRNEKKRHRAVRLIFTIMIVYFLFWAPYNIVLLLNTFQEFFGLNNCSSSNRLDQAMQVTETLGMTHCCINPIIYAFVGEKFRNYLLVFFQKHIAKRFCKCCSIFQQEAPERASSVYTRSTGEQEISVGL

[4] = tested on: human subacromial bursal cells; assay: Cell migration assay of bursal cells in response to SDF-1 stimulation; format: cell-based; conditions: in the presence of CXCR4 inhibitor
Text: FIG. 6 is a bar graph showing cell migration assay of human subacromial bursal cells in the presence of CXCR4 inhibitors AMD3100 and T140.

[5] = tested on: IL-1β induced SDF-1 mRNA expression in human subacromial bursal cells; assay: SDF-1α mRNA (RT-PCR) in IL-1β-treated cultured bursal cells with inhibitors; format: cell-based; conditions: bursal cells treated with IL-1β plus inhibitor
Method: Subacromial bursal cells were cultured as above. First-passaged cells were treated with IL-1β and respective inhibitors as above. Total RNA was isolated using Qiagen RNeasy Mini Kit (Qiagen, Valencia, Calif.). First-strand cDNA was synthesized using 1 μg of total RNA and Superscript III™ First-Strand Synthesis System (Invitrogen). […] All PCR were performed in 25-μl reactions on a DNA Engine Opticon™ 2 Detection System (MJ Research, Hercules, Calif.) for 40 cycles in which each cycles consisted of 15 sec at 95° C., 15 sec at 60° C., and 20 sec at 72° C. Results were standardized to GAPDH housekeeping gene. Statistical analysis was performed using the student's t-test. […]

Text for rat rotator cuff tendons: 58 male Lewis rat shoulders underwent surgery using an IACUC approved protocol. The infraspinatus tendon was transected at its insertion to create a tendon defect (FIG. 7). […] Animals were sacrificed at 3, 7, 14, 28 or 42 days. Eight uninjured rat shoulders were used as controls. Preconditioned for 5 cycles to 0.38 mm displacement in tension at a rate of 0.1 mm/s Stress relaxation test for 300 s duration at 0.38 displacement in tension Return to 0.2 N tension followed by a 300 s latency period Tension to failure at a displacement rate of 0.1 mm/s

| Molecule | decrease of SDF-1α protein production/expression in supernatants [1] [%] | increase in SDF-1α protein production/expression ([2]; cytokine-treated bursal cells) | SDF-1α production, maximal stimulation ([2]; exposure to 20 ng/ml IL-1β) [pg/10^4 cells] | increase in SDF-1α gene (mRNA) expression [3] | binding to chemokine receptor CCR5 (CCR5) | inflammation in the subacromial bursa (rat rotator cuff tendons; rat shoulder with experimentally induced rotator cuff injury) | maximum load in the infraspinatus bone-tendon complex compared to controls (PBS) (rat rotator cuff tendons; rat, osmotic minipump, 3, 7, 14, 28 or 42 days post injury) | bursal cell migration in response to SDF-1 stimulation [4] | SDF-1α mRNA expression [5] |
| --- | --- | --- | --- | --- | --- | --- | --- | --- | --- |
| C[C@@H]1C[C@H]2[C@@H]3CCC4=CC(=O)C=C[C@]4(C)[C@@]3(F)[C@@H](O)C[C@]2(C)[C@@]1(O)C(=O)CO [dexamethasone] | 87 | – | – | – | – | – | – | – | – |
| IL-1β | – | more than five-fold increase | 630 | nearly five-fold increase; also recorded: more than five-fold increase | – | – | – | – | – |
| c1cc(CN2CCCNCCNCCCNCC2)ccc1CN1CCCNCCNCCCNCC1 [AMD3100, 1,1′-[1,4-phenylenebis(methylene)]-bis-1,4,8,11-azatetradecane] | 40 | – | – | – | does not bind | reduced inflammation | No statistically significant differences | decreased | only a slight decrease |
